Compound: CN1CCN(CC1)C2=CC(=C(C=C2)NC3=NC=C4C(=N3)N(C5=CC=CC=C5C(=O)N4C)C)OC [XMD8-85] + CC(=O)Nc1cccc(-n2c(=O)n(C3CC3)c(=O)c3c(Nc4ccc(I)cc4F)n(C)c(=O)c(C)c32)c1 [Trametinib] (partner 0.02 µM)
Assay: relative viability (nuclei count vs DMSO), 5 days (fraction); higher = more cells survive
Details: first compound 0.08 µM
In short: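 Relative viability equals treated-well nuclei counts divided by vehicle-well nuclei counts. Counts came from 4× images of lung cancer cell lines grown in 1536-well plates for 5 days after pin-tool dosing on the day after seeding. Dosing used one drug alone or a fixed anchor-drug dose plus five library-drug doses (not always all listed) in √10 steps, and values are medians of duplicate plates.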

| Cell Line | relative viability |
| --- | --- |
| LOU-NH91 | 0.792 |
| LU99A | 0.51 |
| LXF-289 | 0.658 |
| NCI-H23 | 0.419 |
| NCI-H322M | 0.534 |
| NCI-H441 | 0.4 |
| NCI-H460 | 0.176 |
| NCI-H596 | 0.866 |
| NCI-H647 | 0.478 |
| NCI-H650 | 0.904 |
| NCI-H661 | 0.548 |
| NCI-H727 | 0.373 |
| NCI-H838 | 0.529 |
| NCI-H1355 | 0.414 |
| NCI-H1437 | 0.547 |
| NCI-H1650 | 0.629 |

| Cell Line | relative viability |
| --- | --- |
| NCI-H1651 | 0.842 |
| NCI-H1666 | 0.918 |
| NCI-H1734 | 0.654 |
| NCI-H1755 | 0.801 |
| NCI-H1915 | 0.328 |
| NCI-H1975 | 0.37 |
| NCI-H1993 | 0.484 |
| NCI-H2009 | 0.26 |
| NCI-H2023 | 0.515 |
| NCI-H2085 | 0.651 |
| NCI-H2087 | 0.17 |
| NCI-H2126 | 0.584 |
| NCI-H2347 | 0.275 |
| NCI-H2405 | 0.572 |
| NCI-H3122 | 0.251 |

Same assay, conditions: first compound 0.253 µM

| Cell Line | relative viability |
| --- | --- |
| LOU-NH91 | 0.807 |
| LU99A | 0.538 |
| LXF-289 | 0.646 |
| NCI-H23 | 0.402 |
| NCI-H322M | 0.5 |
| NCI-H441 | 0.427 |
| NCI-H460 | 0.122 |
| NCI-H520 | 0.728 |
| NCI-H596 | 0.72 |
| NCI-H647 | 0.486 |
| NCI-H650 | 1 |
| NCI-H661 | 0.536 |
| NCI-H727 | 0.375 |
| NCI-H838 | 0.48 |
| NCI-H1355 | 0.424 |
| NCI-H1437 | 0.487 |

| Cell Line | relative viability |
| --- | --- |
| NCI-H1650 | 0.539 |
| NCI-H1651 | 0.886 |
| NCI-H1666 | 0.868 |
| NCI-H1734 | 0.712 |
| NCI-H1755 | 0.857 |
| NCI-H1915 | 0.309 |
| NCI-H1975 | 0.376 |
| NCI-H1993 | 0.436 |
| NCI-H2009 | 0.237 |
| NCI-H2023 | 0.535 |
| NCI-H2085 | 0.469 |
| NCI-H2087 | 0.203 |
| NCI-H2126 | 0.6 |
| NCI-H2347 | 0.312 |
| NCI-H2405 | 0.597 |
| NCI-H3122 | 0.223 |

Same assay, conditions: first compound 0.8 µM

| Cell Line | relative viability |
| --- | --- |
| LOU-NH91 | 0.755 |
| LU99A | 0.55 |
| LXF-289 | 0.696 |
| NCI-H23 | 0.369 |
| NCI-H322M | 0.44 |
| NCI-H441 | 0.463 |
| NCI-H460 | 0.2 |
| NCI-H520 | 0.689 |
| NCI-H596 | 0.675 |
| NCI-H647 | 0.485 |
| NCI-H650 | 0.977 |
| NCI-H661 | 0.583 |
| NCI-H727 | 0.405 |
| NCI-H838 | 0.516 |
| NCI-H1355 | 0.384 |
| NCI-H1437 | 0.491 |

| Cell Line | relative viability |
| --- | --- |
| NCI-H1650 | 0.784 |
| NCI-H1651 | 0.739 |
| NCI-H1666 | 0.852 |
| NCI-H1734 | 0.704 |
| NCI-H1755 | 0.745 |
| NCI-H1915 | 0.251 |
| NCI-H1975 | 0.334 |
| NCI-H1993 | 0.537 |
| NCI-H2009 | 0.261 |
| NCI-H2023 | 0.685 |
| NCI-H2085 | 0.427 |
| NCI-H2087 | 0.19 |
| NCI-H2126 | 0.615 |
| NCI-H2347 | 0.283 |
| NCI-H2405 | 0.637 |
| NCI-H3122 | 0.271 |

Same assay, conditions: first compound 2.53 µM

| Cell Line | relative viability |
| --- | --- |
| LOU-NH91 | 0.785 |
| LU99A | 0.53 |
| LXF-289 | 0.728 |
| NCI-H23 | 0.28 |
| NCI-H322M | 0.418 |
| NCI-H441 | 0.494 |
| NCI-H460 | 0.133 |
| NCI-H520 | 0.604 |
| NCI-H596 | 0.769 |
| NCI-H647 | 0.465 |
| NCI-H650 | 0.94 |
| NCI-H661 | 0.653 |
| NCI-H727 | 0.37 |
| NCI-H838 | 0.617 |
| NCI-H1355 | 0.356 |
| NCI-H1437 | 0.594 |

| Cell Line | relative viability |
| --- | --- |
| NCI-H1650 | 0.426 |
| NCI-H1651 | 0.76 |
| NCI-H1666 | 0.947 |
| NCI-H1734 | 0.604 |
| NCI-H1755 | 0.876 |
| NCI-H1915 | 0.478 |
| NCI-H1975 | 0.361 |
| NCI-H1993 | 0.494 |
| NCI-H2009 | 0.253 |
| NCI-H2023 | 0.557 |
| NCI-H2085 | 0.514 |
| NCI-H2087 | 0.19 |
| NCI-H2126 | 0.538 |
| NCI-H2347 | 0.298 |
| NCI-H2405 | 0.647 |
| NCI-H3122 | 0.303 |

Same assay, conditions: first compound 8 µM

| Cell Line | relative viability |
| --- | --- |
| LOU-NH91 | 0.621 |
| LU99A | 0.433 |
| LXF-289 | 0.656 |
| NCI-H23 | 0.24 |
| NCI-H322M | 0.455 |
| NCI-H441 | 0.234 |
| NCI-H460 | 0.055 |
| NCI-H520 | 0.496 |
| NCI-H596 | 0.696 |
| NCI-H647 | 0.28 |
| NCI-H650 | 0.601 |
| NCI-H661 | 0.43 |
| NCI-H727 | 0.368 |
| NCI-H838 | 0.334 |
| NCI-H1355 | 0.284 |
| NCI-H1437 | 0.308 |
| NCI-H1650 | 0.36 |
| NCI-H1651 | 0.716 |
| NCI-H1666 | 0.794 |
| NCI-H1734 | 0.519 |
| NCI-H1755 | 0.758 |
| NCI-H1915 | 0.282 |
| NCI-H1975 | 0.268 |
| NCI-H1993 | 0.381 |
| NCI-H2009 | 0.18 |
| NCI-H2023 | 0.284 |
| NCI-H2085 | 0.355 |
| NCI-H2087 | 0.172 |

— the supplement of paper PMC10307832
